Reference: patent US20210134398A1, “Combinatorial Chemistry Computational System and Enhanced Selection Method” (Southern Methodist University, priority 2019, published 2021)
Like-named read-outs stand apart in the source and are kept apart here.

Columns and labels:
[1] = system: DU145TXR; test: Cell viability, toxicity of the compounds themselves; assay type: cell-based; conditions: absence of chemotherapeutic or very low paclitaxel
Procedure: It should be noted that compounds 541 and 551 were not assessed in these latter experiments.
MTT cell viability assay. Cells were trypsinized from monolayers and seeded with 3000 cells in 150 μL of complete medium in a 96 well plate. After 24 hours, cells were treated for 48 hours with paclitaxel (Acros Organics, NJ) and/or P-gp inhibitory compounds dissolved in DMSO, or DMSO controls. All additions were diluted into complete medium. After 48 hours of treatment, MTT assays were performed as described^41 using 5 mg/mL of MTT (Acros Organics, NJ) solution prepared in PBS (137 mM NaCl, 2.7 mM KCl, 10 mM Na2HPO4, 1.8 mM KH2PO4, pH 7.4). After 4 hours of incubation with MTT, the media was removed and the formazan crystals were dissolved in 100 μL of DMSO. The absorbance at 570 nm was then measured using a BioTek Cytation 5 imaging multi-mode reader (Bio-Tek, Winooski, Vt.). Percent viability was calculated using DMSO treated cells as representative for 100% viability, according to Equation 1. Background absorbance was determined using MTT and complete medium without cells and subtracted from all the test values. Equation 1: […]

[2] = target: T1, cysteineless mouse P-glycoprotein (Mus musculus, UniProt P21447, C1070A/C1121A/C1223A/C133A/C427A/C638A/C669A/C713A/C952A); conditions: in the presence of 29, from Brewer et al. (2014), cited from earlier work
T1 construct: made in house; host or cells: Pichia pastoris
T1 sequence (P21447 whole entry C133A/C427A/C638A/C669A/C713A/C952A/C1070A/C1121A/C1223A): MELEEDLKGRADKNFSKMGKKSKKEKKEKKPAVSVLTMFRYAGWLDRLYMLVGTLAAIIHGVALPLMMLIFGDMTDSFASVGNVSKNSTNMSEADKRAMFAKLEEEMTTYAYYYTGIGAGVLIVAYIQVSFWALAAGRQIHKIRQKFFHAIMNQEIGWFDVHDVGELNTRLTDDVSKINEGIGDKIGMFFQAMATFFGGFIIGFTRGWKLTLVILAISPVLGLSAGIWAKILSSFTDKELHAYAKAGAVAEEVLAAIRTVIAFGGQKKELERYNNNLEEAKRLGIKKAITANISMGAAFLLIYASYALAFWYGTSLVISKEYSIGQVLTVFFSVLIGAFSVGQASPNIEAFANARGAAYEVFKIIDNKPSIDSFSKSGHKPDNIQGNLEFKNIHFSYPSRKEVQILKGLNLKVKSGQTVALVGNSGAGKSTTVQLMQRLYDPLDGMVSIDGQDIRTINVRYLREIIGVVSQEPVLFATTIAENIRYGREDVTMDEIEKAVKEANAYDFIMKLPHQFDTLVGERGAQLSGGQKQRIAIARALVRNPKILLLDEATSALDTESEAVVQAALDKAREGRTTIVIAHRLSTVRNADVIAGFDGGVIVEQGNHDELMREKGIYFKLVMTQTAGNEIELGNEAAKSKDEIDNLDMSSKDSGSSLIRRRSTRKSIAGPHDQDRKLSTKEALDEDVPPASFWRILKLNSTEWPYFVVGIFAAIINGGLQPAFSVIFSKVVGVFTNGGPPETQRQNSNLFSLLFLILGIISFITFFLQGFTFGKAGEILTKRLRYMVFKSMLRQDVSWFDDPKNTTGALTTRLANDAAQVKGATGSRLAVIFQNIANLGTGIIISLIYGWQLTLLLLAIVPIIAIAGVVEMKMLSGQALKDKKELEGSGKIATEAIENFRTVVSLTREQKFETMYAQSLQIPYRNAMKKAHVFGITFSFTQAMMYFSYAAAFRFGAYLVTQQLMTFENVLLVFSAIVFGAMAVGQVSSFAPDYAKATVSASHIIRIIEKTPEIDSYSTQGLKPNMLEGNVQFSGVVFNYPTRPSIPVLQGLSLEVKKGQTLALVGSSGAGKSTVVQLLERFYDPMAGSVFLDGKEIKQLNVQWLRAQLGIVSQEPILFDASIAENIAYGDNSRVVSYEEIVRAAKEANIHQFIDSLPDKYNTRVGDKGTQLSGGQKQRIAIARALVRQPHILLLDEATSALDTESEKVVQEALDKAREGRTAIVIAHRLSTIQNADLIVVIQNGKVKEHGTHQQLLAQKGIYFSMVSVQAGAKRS

SMILES | Toxicity of the compound to DU145TXR cells [1] | Effect on SL-ANP binding [2] | Effect on SL-ANP binding ([2]; listed as SMU29)
Cc1cc(C)c(-c2cc(NC(=O)CSc3nnc4c(n3)[nH]c3ccccc34)n(-c3ccccc3)n2)cc1C [29-541, 2-((5H-[1,2,4]triazino[5,6-b]indol-3-yl)thio)-N-(1-phenyl-3-(2,4,5-trimethylphenyl)-1H-pyrazol-5-yl)acetamide] | showed some toxicity | – | –
Cc1cc(C)c(-c2cc(NC(=O)CSc3nnc(C4CC4)[nH]3)n(-c3ccccc3)n2)cc1C [compound 29, reference compound] | – | did not affect the binding | no
Cc1cc(C)c(-c2cc(NC(=O)CSCC(=O)NC(c3ccccc3)c3ccccc3)n(-c3ccccc3)n2)cc1C [29-280, N-(diphenylmethyl)-2-[({[1-phenyl-3-(2,4,5-trimethylphenyl)-1H-pyrazol-5-yl]carbamoyl)methyl}sulfanyl]acetamide] | seemed to exhibit some toxicity | – | –
